{
  "source": "patent US20040067592A1",
  "about": "“Process for controlling microbial contamination of polymeric emulsions using carbon dioxide detection” (priority 2002, published 2004)",
  "key": {"[1]": {"tested_on": "Gluconoacetobacter liquefaciens", "assay": "Headspace carbon dioxide concentration over inoculated AIRFLEX 400 emulsion after biocide addition", "type": "cell-based", "excerpt": "Sterile AIRFLEX® 400 (1600 grams) poly(vinyl alcohol) stabilized vinyl acetate/ethylene polymeric emulsion was placed in a 2L plastic Nalgene container. The plastic cover was modified with two ports. The first port was used to mount and insert the carbon dioxide sensor and the second, much smaller diameter port was left open to the atmosphere to permit venting and a constant pressure within the container. A Vaisala GMT222 direct reading carbon dioxide transmitter connected to a data logger and computer was used as the measuring device. The cover was then screwed on tightly and the headspace carbon dioxide concentration measured over the course of 3 days. During this entire monitoring period the headspace carbon dioxide concentration remained steady at approximately 400 ppm.\n(§1) In an effort to determine the efficacy of carbon dioxide measurement as a detection mechanism for microbial growth, AIRFLEX 400 (1600 grams) poly(vinyl alcohol) stabilized (some biocide present) vinyl acetate/ethylene polymeric emulsion was inoculated with Gluconoacetobacter liquefaciens. The resulting concentration of Gluconoacetobacter liquefaciens in the Airflex 400 emulsion was measured via a dilution plate count on potato dextrose agar and found to be 5.4×10^4 cfu/ml. The contaminated emulsion was placed in a 2L plastic Nalgene container. The modified cover, equipped with the carbon dioxide sensor and vent hole, described in Example 1 was tightly screwed on. The headspace carbon dioxide level began rising above background (˜400 ppm) within a matter of minutes. After continually monitoring this sample for 2 days, the headspace carbon dioxide concentration leveled out at about 1600 ppm.\nTo the same contaminated sample described in Example 2 was added 400 ppm of dodecylguanidine hydrochloride (DGH) biocide to reduce the Gluconoacetobacter liquefaciens concentration.\n(§2) The sample was then monitored for headspace carbon dioxide concentration as described in Examples 1 and 2. After continually monitoring this sample for 2 days the headspace carbon dioxide concentration leveled out at about 1150 ppm. A sample of the AIRFLEX 400 poly(vinyl alcohol) stabilized vinyl acetate/ethylene polymeric emulsion was removed from the container and the concentration of Gluconoacetobacter liquefaciens was measured on potato dextrose agar using a dilution plate count method.\nas §2, with “To the same contaminated sample described in Example 3 was added an additional 375 ppm DGH to further reduce the Gluconoacetobacter liquefaciens concentration. The” for “The”, “for 3” for “for 2”, “about 1000” for “about 1150”\nas §2, with “To the same contaminated sample described in Example 4 was added an additional 350 ppm DGH to further reduce the Gluconoacetobacter liquefaciens concentration. The” for “The”, “for 3” for “for 2”, “about 800” for “about 1150”, “400” for “400 poly(vinyl alcohol) stabilized vinyl acetate/ethylene polymeric”"}, "[2]": {"tested_on": "Gluconoacetobacter liquefaciens", "assay": "Dilution plate count on potato dextrose agar of inoculated AIRFLEX 400 emulsion after biocide addition", "type": "cell-based", "method": "as §1, §2\nas §2, with “To the same contaminated sample described in Example 3 was added an additional 375 ppm DGH to further reduce the Gluconoacetobacter liquefaciens concentration. The” for “The”, “for 3” for “for 2”, “about 1000” for “about 1150”\nas §2, with “To the same contaminated sample described in Example 4 was added an additional 350 ppm DGH to further reduce the Gluconoacetobacter liquefaciens concentration. The” for “The”, “for 3” for “for 2”, “about 800” for “about 1150”, “400” for “400 poly(vinyl alcohol) stabilized vinyl acetate/ethylene polymeric”"}, "[3]": {"conditions": "Example 3, biocide 400 ppm, time 24 hour"}, "[4]": {"conditions": "Example 4, biocide 375 ppm (additional), time 96 hour"}, "[5]": {"conditions": "Example 5, biocide 350 ppm (additional), time 96 hour"}},
  "note": "Where a name gives a salt, the structure may show the parent alone.",
  "data": [
    {"compound": "CCCCCCCCCCCCNC(=N)N", "note": "[DGH, dodecylguanidine hydrochloride]", "values": [
      {"measurement": "headspace carbon dioxide concentration leveled out", "setting": "[1]; Example 3: 400 ppm DGH added to contaminated AIRFLEX 400 (5.4×10^4 cfu/ml, 1600 ppm CO2 before), monitored 2 days, background ~400 ppm", "result": "about 1150 ppm"},
      {"measurement": "CO2", "setting": "[1]; [3]", "result": 1150, "unit": "ppm"},
      {"measurement": "headspace carbon dioxide concentration leveled out", "setting": "[1]; Example 4: additional 375 ppm DGH added to Example 3 sample (400 ppm DGH), monitored 3 days", "result": "about 1000 ppm"},
      {"measurement": "CO2", "setting": "[1]; [4]", "result": 1000, "unit": "ppm"},
      {"measurement": "headspace carbon dioxide concentration leveled out", "setting": "[1]; Example 5: additional 350 ppm DGH added to Example 4 sample (400 + 375 ppm DGH), monitored 3 days", "result": "about 800 ppm"},
      {"measurement": "CO2", "setting": "[1]; [5]", "result": 800, "unit": "ppm"},
      {"measurement": "Gluconoacetobacter liquefaciens contamination level", "setting": "[2]; Example 3: 400 ppm DGH added to contaminated AIRFLEX 400 (5.4×10^4 cfu/ml before), after 2 days", "result": "1.30×10^4 cfu/ml"},
      {"measurement": "Contamination", "setting": "[2]; [3]", "result": "1.3 × 10^4 CFU/ml"},
      {"measurement": "Gluconoacetobacter liquefaciens contamination level", "setting": "[2]; Example 4: additional 375 ppm DGH added to Example 3 sample (400 ppm DGH), after 3 days", "result": "4.40×10^3 cfu/ml"},
      {"measurement": "Contamination", "setting": "[2]; [4]", "result": "4.4 × 10^3 CFU/ml"},
      {"measurement": "Gluconoacetobacter liquefaciens contamination level", "setting": "[2]; Example 5: additional 350 ppm DGH added to Example 4 sample (400 + 375 ppm DGH), after 3 days", "result": "3.20×10^2 cfu/ml"},
      {"measurement": "Contamination", "setting": "[2]; [5]", "result": "3.2 × 10^2 CFU/ml"}
    ]}
  ]
}
